Measurements taken from patent US7799565B2, “Lipid encapsulated interfering RNA” (Protiva Biotherapeutics, Inc., priority 2004, dated 2010).

What was measured:
luciferase = test: In vitro silencing of luciferase in stably transfected Neuro2A cells; type: cell-based; conditions: 48 hours; for luciferase expression relative to untreated control: cationic lipid incorporated in SNALP with anti-luciferase siRNA
Protocol: In vitro Transfection: Cells were cultured in MEM (Invitrogen) containing 10% fetal bovine serum (FBS) (CanSera) and 0.25 mg/mL G418 (Invitrogen). Neuro2A-G cells (Neuro2A cells stably transfected to express luciferase [R. E. Kingston. in Current Protocols in Molecular Biology, Vol. 2, pp. 9.1.4-9.1.9, John Wiley & Sons, Inc. (1997)]) were plated at a concentration of 4×10^4 cells per well in 24-well plates and grown overnight. Cells were treated with SNALP at doses of 0.0625-1.0 μg/mL nucleic acid (AntiLuc Active or Mismatch Control) and incubated for 48 hours at 37° C. and 5% CO2. Cells were then washed with PBS and lysed with 200 μL 250 mM sodium phosphate containing 0.1% Triton X-100. The luciferase activity for each well was determined using Luciferase Reagent (Promega) and a standard luciferase protein (Roche). The luminescence for each was measured using a Berthold MicroLumatPlus LB96V plate luminometer. The resulting luciferase activity was then normalized for the amount of protein using the Micro BCA assay kit (Pierce). Luciferase knockdown relative to a control was then determined for each system.
This example describes experiments comparing expression of nucleic acids following in vitro transfection of Neuro2A cells with SNALP comprising: (1) DODAC, DODMA, or DLinDMA; (2) PEG-C-DMA; and (3) an siRNA duplex directed against luciferase encapsulated in the SNALP (i.e., siRNA comprising the following sequence: […] and targeting the DNA sequence complementary to: […]). Neuro2A cells were stably transfected with a plasmid encoding luciferase under the control of the CMV promoter (pLO55). The stably transfected cells were then transfected with SNALP comprising: 15, 20, 25, 30, 35, or 40% of DODAC, DODMA, or DLinDMA; 2% PEG-C-DMA, and an siRNA duplex directed against luciferase encapsulated in the SNALP. Luciferase protein expression was measured 48 hours after transfection with SNALP.
The ability of SNALP containing each of the four cationic lipids (i.e., DSDMA, DODMA, DLinDMA, and DLenDMA) to effect gene silencing in stably transfected Neuro2A cells was evaluated. Neuro2A cells stably transfected to express the luciferase were treated with SNALP containing anti-luciferase siRNA for 48 hours. Gene-silencing efficiency was evaluated by comparing the remaining luciferase activity in these cells to that remaining in cells treated with control SNALP containing mismatch siRNA.

[1] = 31P-NMR phase transition of cationic lipid / DPPS vesicles; type: physicochemical; conditions: series DSDMA, DODMA, DLinDMA, DLenDMA
Protocol: ^31P Nuclear Magnetic Resonance Spectroscopy: Multilamellar vesicles (MLV) were prepared comprising DPPS and cationic lipid at a molar ratio of 1:1. This was accomplished by drying the lipids from chloroform solution, transferring to 10 mm NMR tubes, and hydrating in 1.5 mL of 10 mM sodium citrate, pH 4. Free induction decays (FIDs) corresponding to 1000 scans were obtained with a 3.0 μs, 60 o pulse with a 1 s interpulse delay and a spectral width of 25000 Hz. A gated two-level proton decoupling was used to ensure sufficient decoupling with minimum sample heating. An exponential multiplication corresponding to 50 Hz of line broadening was applied to the FIDs prior to Fourier transformation. The sample temperature (+/−1° C.) was regulated using a Bruker B-VT1000 variable temperature unit. Chemical shifts were referenced to 85% phosphoric acid as an external standard.

[2] = SNALP with anti-luciferase siRNA, versus control SNALP containing mismatch siRNA

SMILES | gene-silencing activity (luciferase; [2]) | luciferase expression relative to untreated control (luciferase) [%] | knockdown in gene expression (luciferase; [2]) [%] | phase transition temperature [1]
CC/C=C\C/C=C\C/C=C\CCCCCCCCOCC(CN(C)C)OCCCCCCCC/C=C\C/C=C\C/C=C\CC (stereo not shown) [DLenDMA, 1,2-Dilinolenyloxy-N,N-dimethylaminopropane] | slightly less efficient than those containing DLinDMA | 32 | – | –
CCCCC/C=C\C/C=C\CCCCCCCCOCC(CN(C)C)OCCCCCCCC/C=C\C/C=C\CCCCC (stereo not shown) [DLinDMA, 1,2-DiLinoleyloxy-N,N-dimethylaminopropane] | – | 21 | 80 | lowest phase transition temperature in the series
CCCCCCCCCCCCCCCCCC[N+](C)(C)CCCCCCCCCCCCCCCCCC [DODMA, dioctadecyldimethylammonium, reference compound] | – | 54 | – | –
CCCCCCCCCCCCCCCCCC[N+](C)(C)CCCCCCCCCCCCCCCCCC [DSDMA, Distearyldimethylammonium, reference compound] | no activity | – | – | –
